In data set [1] the test system is Staphylococcus aureus. Put plainly: Antibacterial activity against methicillin-resistant Staphylococcus aureus ATCC 33591 after 16 to 18 hrs by broth microdilution method. It is filed as functional. The conditions noted are these: time 16-18 hrs. (In general: Broth dilution looks for growth in wells or tubes with falling amounts of substance.)
Data set [2] has as its system Staphylococcus aureus. In words: Antibacterial activity against methicillin-resistant Staphylococcus aureus ATCC 43300 after 16 to 18 hrs by broth microdilution method. In kind it is functional. The note with it: time 16-18 hrs.
Data set [3] has as its system Staphylococcus aureus. Put plainly: Antibacterial activity against methicillin-resistant Staphylococcus aureus Bio-090770 after 16 to 18 hrs by broth microdilution method. In kind it is functional. The note with it: time 16-18 hrs.
In data set [4] the test system is Staphylococcus aureus. In words: Antibacterial activity against methicillin-susceptible Staphylococcus aureus ATCC 29213 after 16 to 18 hrs by broth microdilution method. The conditions noted are these: time 16-18 hrs. In kind it is functional.
The test system of data set [5] is Staphylococcus aureus. Put plainly: Antibacterial activity against methicillin-susceptible Staphylococcus aureus ATCC 25923 after 16 to 18 hrs by broth microdilution method. It is filed as functional. The conditions noted are these: time 16-18 hrs.
For data set [6], the system named is Staphylococcus aureus. Put plainly: Antibacterial activity against methicillin-susceptible Staphylococcus aureus ATCC 13709 after 16 to 18 hrs by broth microdilution method. In kind it is functional. The note with it: time 16-18 hrs.
The subject of data set [7] is Staphylococcus epidermidis. In words: Antibacterial activity against Staphylococcus epidermidis after 16 to 18 hrs by broth microdilution method. In kind it is functional. The conditions noted are these: time 16-18 hrs.
The test system of data set [8] is Escherichia coli. Put plainly: Antibacterial activity against Escherichia coli ATCC 25922 after 16 to 18 hrs by broth microdilution method. In kind it is functional. The note with it: time 16-18 hrs.
The test system of data set [9] is Klebsiella pneumoniae. Put plainly: Antibacterial activity against Klebsiella pneumoniae CICC 21611 after 16 to 18 hrs by broth microdilution method. In kind it is functional. The note with it: time 16-18 hrs.
In data set [10] the test system is Acinetobacter baumannii. Put plainly: Antibacterial activity against Acinetobacter baumannii Bio 34235 after 16 to 18 hrs by broth microdilution method. It is filed as functional. The note with it: time 16-18 hrs.
In data set [11] the test system is Acinetobacter baumannii. Put plainly: Antibacterial activity against drug-resistant Acinetobacter baumannii Bio 53272 after 16 to 18 hrs by broth microdilution method. It is filed as functional. The note with it: time 16-18 hrs.
A short description of data set [12]: Cytotoxicity against human HEK293T cells assessed as cell viability at 3.125 to 100 uM incubated for 24 hrs by MTT assay. It is filed as toxicity, cell-based, HEK-293T.
Data set [13] in a line: Cytotoxicity against human HeLa cells assessed as cell viability at 3.125 to 100 uM incubated for 24 hrs by MTT assay. It is filed as toxicity, cell-based. (Formazan colour is commonly taken as a measure of viable cells.)
Data set [14] is described as follows: Methemoglobin toxicity in human blood at 500 uM incubated for 6 hrs by MetHb content assay. In kind it is tissue-based.
Data set [15] relates to Acinetobacter baumannii. Put plainly: Antibacterial activity against Acinetobacter baumannii Bio 53272 after 16 to 18 hrs by broth microdilution method. It is filed as functional. The note with it: time 16-18 hrs.
In data set [16] the test system is Acinetobacter baumannii. In words: Antibacterial activity against Acinetobacter baumannii Bio 24253 after 16 to 18 hrs by broth microdilution method. In kind it is functional. The note with it: time 16-18 hrs.
The test system of data set [17] is Acinetobacter baumannii. Put plainly: Antibacterial activity against Acinetobacter baumannii Bio 53250 after 16 to 18 hrs by broth microdilution method. It is filed as functional. The note with it: time 16-18 hrs.
The subject of data set [18] is Acinetobacter baumannii. Put plainly: Antibacterial activity against Acinetobacter baumannii Bio 69680 after 16 to 18 hrs by broth microdilution method. In kind it is functional. The conditions noted are these: time 16-18 hrs.
Data set [19] has as its system Acinetobacter baumannii. Put plainly: Antibacterial activity against Acinetobacter baumannii Bio 120982 after 16 to 18 hrs by broth microdilution method. In kind it is functional. The note with it: time 16-18 hrs.
The subject of data set [20] is Klebsiella pneumoniae. Put plainly: Antibacterial activity against Klebsiella pneumoniae CICC 21092 after 16 to 18 hrs by broth microdilution method. The note with it: time 16-18 hrs. In kind it is functional.
The test system of data set [21] is Klebsiella pneumoniae. In words: Antibacterial activity against Klebsiella pneumoniae CICC 20093 after 16 to 18 hrs by broth microdilution method. In kind it is functional. The conditions noted are these: time 16-18 hrs.
The subject of data set [22] is Escherichia coli. Put plainly: Antibacterial activity against Escherichia coli ATCC 10668 after 16 to 18 hrs by broth microdilution method. It is filed as functional. The note with it: time 16-18 hrs.
Data set [23] concerns Escherichia coli. In words: Antibacterial activity against Escherichia coli ATCC 10663 after 16 to 18 hrs by broth microdilution method. It is filed as functional. The note with it: time 16-18 hrs.
Data set [24] has as its system Escherichia coli. In words: Antibacterial activity against Escherichia coli ATCC 10661 after 16 to 18 hrs by broth microdilution method. In kind it is functional. The note with it: time 16-18 hrs.
The nature of data set [25]: Aqueous solubility of compound at 0.9% aqueous NaCl solution incubated for 2 hrs by UV spectrophotometry analysis. It is filed as physicochemical.

What is called MIC is the least concentration at which growth counts as inhibited. In general, IC50 refers to the midpoint of a concentration-inhibition curve. Broadly, the solubility is how much of the substance goes into solution per volume. Read a low solubility as a poorly soluble substance.

Values after ≈ are worked out from the molar mass of the structure shown.

For `CCCC[C@H](CN(O)C=O)C(=O)N1CCC[C@H]1c1nnc(-c2ccc(Cl)s2)s1`, the minimal inhibitory concentration (MIC) was 0.25 µg/mL (≈ 0.564 µM) against Staphylococcus aureus [1]; 0.25 µg/mL (≈ 0.564 µM) with Staphylococcus aureus [2]; 1 µg/mL (≈ 2.26 µM) with Staphylococcus aureus [3]; 1 µg/mL (≈ 2.26 µM) with Staphylococcus aureus [4]; 1 µg/mL (≈ 2.26 µM) against Staphylococcus aureus [5]; 1 µg/mL (≈ 2.26 µM) with Staphylococcus aureus [6]. In addition, the MIC in [7] was found to be 0.5 µg/mL (≈ 1.13 µM); against Escherichia coli [8], 32 µg/mL (≈ 72.2 µM); with Klebsiella pneumoniae [9] it was 32 µg/mL (≈ 72.2 µM); with Acinetobacter baumannii [10], 32 µg/mL (≈ 72.2 µM); with Acinetobacter baumannii [11] it was 16 µg/mL (≈ 36.1 µM). Besides, the IC50 at 24 h in data set [12] and in [13] was greater than 100 µM throughout. Moreover, the Activity entry in data set [14] is recorded as “Toxic”.

As for `Nc1ccc(S(=O)(=O)c2ccc(N)cc2)cc1` [DAPSONE], the Activity result in [14] is recorded as “Toxic”.

Turning to `CC(=O)NC[C@H]1CN(c2ccc(N3CCOCC3)c(F)c2)C(=O)O1` [LINEZOLID], the MIC in the data set on Staphylococcus aureus [1], in the data set with Staphylococcus aureus [2], with Staphylococcus aureus [3], in the data set on Staphylococcus aureus [4], with Staphylococcus aureus [5] and in the data set on Staphylococcus aureus [6] was 1 µg/mL (≈ 2.96 µM) in each case. Further, the minimal inhibitory concentration (MIC) in data set [7] is 8 µg/mL (≈ 23.7 µM); against Escherichia coli [8] it was greater than 128 µg/mL; against Klebsiella pneumoniae [9], 128 µg/mL (≈ 379 µM); against Acinetobacter baumannii [10], 128 µg/mL (≈ 379 µM); in the data set on Acinetobacter baumannii [11], greater than 16 µg/mL; against Acinetobacter baumannii [15] it was 128 µg/mL (≈ 379 µM). The minimum inhibitory concentration (MIC) with Acinetobacter baumannii [16] was 128 µg/mL (≈ 379 µM); against Acinetobacter baumannii [17], 128 µg/mL (≈ 379 µM); with Acinetobacter baumannii [18] it was 128 µg/mL (≈ 379 µM); with Acinetobacter baumannii [19], 128 µg/mL (≈ 379 µM); with Klebsiella pneumoniae [20], greater than 128 µg/mL; against Klebsiella pneumoniae [21], 128 µg/mL (≈ 379 µM). Also, the MIC with Escherichia coli [22] was 128 µg/mL (≈ 379 µM); against Escherichia coli [23], 64 µg/mL (≈ 190 µM); in the data set with Escherichia coli [24] it was 16 µg/mL (≈ 47.4 µM). Also, the 50% inhibitory concentration (IC50) at 24 h in [12] and in data set [13] was greater than 100 µM each time.

With `CCCC[C@H](CN(O)C=O)C(=O)N1CCC[C@H]1C(=O)Nc1ccc(F)c[n+]1[O-]`, the MIC with Staphylococcus aureus [1] came to 0.125 µg/mL (≈ 0.315 µM); against Staphylococcus aureus [2], 0.25 µg/mL (≈ 0.631 µM); against Staphylococcus aureus [3], 0.5 µg/mL (≈ 1.26 µM); in the data set with Staphylococcus aureus [4] it was 0.25 µg/mL (≈ 0.631 µM); against Staphylococcus aureus [5] it was 0.5 µg/mL (≈ 1.26 µM); in the data set on Staphylococcus aureus [6], 0.25 µg/mL (≈ 0.631 µM). The minimum inhibitory concentration (MIC) is 0.25 µg/mL (≈ 0.631 µM) in data set [7]; 32 µg/mL (≈ 80.7 µM) against Escherichia coli [8]; 64 µg/mL (≈ 161 µM) in the data set with Klebsiella pneumoniae [9]; 32 µg/mL (≈ 80.7 µM) against Acinetobacter baumannii [10]; greater than 16 µg/mL against Acinetobacter baumannii [11]; 32 µg/mL (≈ 80.7 µM) against Acinetobacter baumannii [15]. The minimum inhibitory concentration (MIC) with Acinetobacter baumannii [16] turned out to be 32 µg/mL (≈ 80.7 µM); in the data set with Acinetobacter baumannii [17] it was 32 µg/mL (≈ 80.7 µM); against Acinetobacter baumannii [18], 16 µg/mL (≈ 40.4 µM); with Acinetobacter baumannii [19] it was 16 µg/mL (≈ 40.4 µM); in the data set on Klebsiella pneumoniae [20], 64 µg/mL (≈ 161 µM); in the data set on Klebsiella pneumoniae [21], 64 µg/mL (≈ 161 µM). Further, the MIC is 32 µg/mL (≈ 80.7 µM) against Escherichia coli [22], 16 µg/mL (≈ 40.4 µM) against Escherichia coli [23] and 8 µg/mL (≈ 20.2 µM) with Escherichia coli [24]. For the same compound, the IC50 at 24 h in data set [12] and in data set [13] was greater than 100 µM each time. Further, the solubility at 2 h in [25] was 1650 µg/mL (≈ 4160 µM). The Activity result in data set [14] is “Toxic”.

On to `CCCC[C@H](CN(O)C=O)C(=O)N1CCC[C@H]1c1nnc(-c2nccs2)s1`, for which the MIC against Staphylococcus aureus [1] came to 0.25 µg/mL (≈ 0.61 µM); in the data set on Staphylococcus aureus [2] it was 0.25 µg/mL (≈ 0.61 µM); in the data set on Staphylococcus aureus [3], 1 µg/mL (≈ 2.44 µM); in the data set on Staphylococcus aureus [4] it was 2 µg/mL (≈ 4.88 µM); in the data set with Staphylococcus aureus [5] it was 1 µg/mL (≈ 2.44 µM); in the data set with Staphylococcus aureus [6], 0.5 µg/mL (≈ 1.22 µM). In addition, the MIC was 0.25 µg/mL (≈ 0.61 µM) in [7]; greater than 16 µg/mL against Escherichia coli [8]; greater than 16 µg/mL in the data set with Klebsiella pneumoniae [9]; 16 µg/mL (≈ 39.1 µM) in the data set on Acinetobacter baumannii [10]; 8 µg/mL (≈ 19.5 µM) in the data set on Acinetobacter baumannii [11]. Besides, in [14], the Activity entry was “Toxic”.

The record behind these values is ChEMBL document CHEMBL6121016, “Design, Synthesis, and Biological Evaluation of 1,3,4-Thiadiazole Derivatives as Novel Potent Peptide Deformylase Inhibitors for Combating Drug-Resistant Gram-Positive and -Negative Bacteria” (J Med Chem, 2025).
